# Literature values in patent US9873661B2, “Small molecule malarial Aldolase-TRAP enhancers and glideosome inhibitors” (NEW YORK UNIVERSITY, priority 2011, dated 2018).
# Target: T1, plant plasma membrane H+-ATPase (PMA) and 14-3-3 (Nicotiana tabacum, UniProt P93343)
# T1 sequence (P93343 1-260): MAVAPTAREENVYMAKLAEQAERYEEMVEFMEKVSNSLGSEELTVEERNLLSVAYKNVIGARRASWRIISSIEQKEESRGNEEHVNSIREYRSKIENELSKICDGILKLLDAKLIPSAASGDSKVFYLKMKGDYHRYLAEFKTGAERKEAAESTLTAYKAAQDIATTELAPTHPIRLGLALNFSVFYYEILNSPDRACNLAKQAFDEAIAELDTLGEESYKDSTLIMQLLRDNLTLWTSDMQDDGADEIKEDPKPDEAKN
substance,measurement,value
fusioccin,increase of binding affinity between PMA and 14-3-3,approximately 90 fold
